Results on 8 compounds are retold here after PubChem BioAssay (NCI).

“And” between values parts separate entries of the source, which are not always exact repeats. Equal values may be shown once.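 Protocol summary: plate cells (96-well), add compound at 5 concentrations, incubate 48 h, interpolate endpoints linearly. GI50: concentration for 50% inhibition of growth. TGI: concentration producing complete growth inhibition.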

Some test systems named below: UO-31 renal; MCF7 breast; SF-295 CNS; HOP-62 NSCLC; NCI/ADR-RES ovarian; OVCAR-5 ovarian; SK-MEL-5 melanoma; K-562 leukemia; SK-MEL-28 melanoma; OVCAR-4 ovarian.
Common to all, as to test: inhibition of tumour cell growth, NCI panel, 48 h

On to `O=C(Nc1cccc(-n2ccc3c(NC(=O)c4ccccc4)nccc32)c1)c1cccc(C(F)(F)F)c1`, for which the GI50 in the assay on UO-31 renal was 0.312 µM; in the assay on MCF7 breast, 0.0362 µM; in the assay on SF-295 CNS, 0.0278 µM; in the assay on HOP-62 NSCLC it was 0.0543 µM; in the assay with NCI/ADR-RES ovarian, 0.0327 µM; with OVCAR-5 ovarian, 0.239 µM. In addition, the GI50 in the assay with SK-MEL-5 melanoma is 0.0341 µM; in the assay on K-562 leukemia, 0.0391 µM; in the assay with SK-MEL-28 melanoma it was 0.0558 µM; in the assay on OVCAR-4 ovarian, 0.104 µM. Also, the TGI is 16 µM in the assay on UO-31 renal; 0.468 µM in the assay on SF-295 CNS; 16.5 µM in the assay with HOP-62 NSCLC; above 100 µM in the assay on NCI/ADR-RES ovarian; above 100 µM in the assay on OVCAR-5 ovarian; 0.152 µM in the assay with SK-MEL-5 melanoma. The TGI in the assay on K-562 leukemia is above 38.2 µM; in the assay on SK-MEL-28 melanoma, 4.04 µM; in the assay with OVCAR-4 ovarian it was above 67.7 µM.

As to `COc1c(C2CC(=O)Nc3c2cnn3Cc2ccco2)cc2c(c1OC)OCO2` (centres undefined), the GI50 in the assay on UO-31 renal is 2.65 µM; with MCF7 breast, 0.367 µM; with SF-295 CNS it was 0.573 µM; in the assay with HOP-62 NSCLC, 1.79 µM; in the assay on NCI/ADR-RES ovarian it was 1.08 µM; in the assay on OVCAR-5 ovarian, 4.7 µM. Besides, the values for the GI50 in the assay on SK-MEL-5 melanoma and in the assay on K-562 leukemia were 0.395 µM and 0.434 µM, respectively. Moreover, the TGI with UO-31 renal is above 100 µM; in the assay with MCF7 breast, above 100 µM; in the assay on SF-295 CNS, above 30.5 µM; with HOP-62 NSCLC it was above 100 µM; in the assay on NCI/ADR-RES ovarian, above 100 µM; with OVCAR-5 ovarian it was above 100 µM. The TGI in the assay on SK-MEL-5 melanoma is 8.38 µM; with K-562 leukemia it was above 100 µM; with SK-MEL-28 melanoma it was above 100 µM; with OVCAR-4 ovarian it was above 100 µM.

Consider `CC1(C)N=C(N)N=C(N)N1c1ccc(CCCCc2ccc(S(=O)(=O)F)cc2)cc1`, for which the GI50 in the assay on UO-31 renal is 35.1 µM; in the assay on MCF7 breast it was 0.425 µM; in the assay with SF-295 CNS, 5.71 µM; in the assay on HOP-62 NSCLC, 3.86 µM; with NCI/ADR-RES ovarian, above 90.2 µM; in the assay with OVCAR-5 ovarian it was 2.62 µM. The GI50 is 0.574 µM with SK-MEL-5 melanoma, 0.472 µM with K-562 leukemia, 4.57 µM in the assay on SK-MEL-28 melanoma and 8.23 µM in the assay with OVCAR-4 ovarian. Further, the TGI with UO-31 renal was above 100 µM; in the assay on MCF7 breast, 14.2 µM; with SF-295 CNS, above 54.2 µM; in the assay on HOP-62 NSCLC, 20.1 µM; in the assay with NCI/ADR-RES ovarian, above 100 µM; with OVCAR-5 ovarian, above 100 µM. The TGI is 13.4 µM with SK-MEL-5 melanoma, 28.8 µM in the assay on K-562 leukemia, 20.3 µM in the assay with SK-MEL-28 melanoma and above 86.5 µM in the assay on OVCAR-4 ovarian.

With `Clc1ccccc1C(c1ccccc1)(c1ccccc1)n1ccnc1`, the GI50 in the assay on UO-31 renal was 1.45 µM; in the assay on MCF7 breast, 2.89 µM; in the assay with SF-295 CNS, 1.94 µM; with HOP-62 NSCLC it was 2.99 µM; in the assay on NCI/ADR-RES ovarian, 2.88 µM; in the assay on OVCAR-5 ovarian it was 4.05 µM. The GI50 in the assay with SK-MEL-5 melanoma was 2.61 µM; in the assay on SK-MEL-28 melanoma, 3.86 µM; in the assay on OVCAR-4 ovarian, 2.95 µM. The TGI in the assay with UO-31 renal was 9 µM and 19.8 µM; in the assay on MCF7 breast, 11.8 µM and 24.7 µM; with SF-295 CNS, 9.67 µM and 23.7 µM; with HOP-62 NSCLC, 12.5 µM and 26.6 µM; with NCI/ADR-RES ovarian, 13.3 µM and 28.2 µM; with OVCAR-5 ovarian, 15.5 µM and 29.8 µM. For the same compound, the TGI was 10.4 µM and 22.3 µM with SK-MEL-5 melanoma; above 42.1 µM in the assay with K-562 leukemia; 15.6 µM and 36.1 µM in the assay with SK-MEL-28 melanoma; 15.5 µM and 41.3 µM with OVCAR-4 ovarian.

As to `C=C1C(O)C2CCC(C)(C)C(=O)C2=C(CC(C)C)C12CC2` (centres undefined), the GI50 was 66.1 µM in the assay on UO-31 renal; 35 µM in the assay on MCF7 breast; 36.6 µM in the assay with SF-295 CNS; 76.6 µM with HOP-62 NSCLC; 45.4 µM in the assay with NCI/ADR-RES ovarian; above 100 µM in the assay with OVCAR-5 ovarian. Besides, the GI50 with SK-MEL-5 melanoma is 24.8 µM; with K-562 leukemia, 31.9 µM; in the assay on SK-MEL-28 melanoma it was 43.6 µM; in the assay with OVCAR-4 ovarian it was above 100 µM. The TGI in the assay with UO-31 renal, in the assay on MCF7 breast, with SF-295 CNS, in the assay with HOP-62 NSCLC, with NCI/ADR-RES ovarian and in the assay with OVCAR-5 ovarian was above 100 µM each time. In addition, the TGI with SK-MEL-5 melanoma, with K-562 leukemia, with SK-MEL-28 melanoma and with OVCAR-4 ovarian was above 100 µM throughout.

Regarding `C=C1CCC2C(/C=C(\C)CCC1O)OC(=O)C2C` (centres undefined), the GI50 was above 100 µM with UO-31 renal; 82.2 µM in the assay with MCF7 breast; above 100 µM with SF-295 CNS; above 100 µM in the assay with HOP-62 NSCLC; above 100 µM in the assay on NCI/ADR-RES ovarian; above 100 µM in the assay with OVCAR-5 ovarian. Further, the GI50 with SK-MEL-5 melanoma, in the assay with K-562 leukemia, in the assay with SK-MEL-28 melanoma and with OVCAR-4 ovarian was above 100 µM in each case. For the same compound, the TGI with UO-31 renal, in the assay with MCF7 breast, in the assay on SF-295 CNS, with HOP-62 NSCLC, in the assay on NCI/ADR-RES ovarian and with OVCAR-5 ovarian was above 100 µM in each case. Besides, the TGI with SK-MEL-5 melanoma, with K-562 leukemia, in the assay on SK-MEL-28 melanoma and in the assay with OVCAR-4 ovarian was above 100 µM throughout.

In the case of `COc1ccc(-c2nn(-c3cccc(Cl)c3)cc2C2CC(c3ccccc3)=NN2C(C)=O)cc1` (centres undefined), the GI50 in the assay with UO-31 renal was 6.36 µM; in the assay on MCF7 breast, above 100 µM; with SF-295 CNS, 5.96 µM; in the assay with HOP-62 NSCLC it was 2.62 µM; in the assay with NCI/ADR-RES ovarian, 6.96 µM; in the assay on OVCAR-5 ovarian, above 100 µM. The GI50 in the assay with SK-MEL-5 melanoma is 30.3 µM; with K-562 leukemia it was above 100 µM; in the assay on SK-MEL-28 melanoma, 6.16 µM; with OVCAR-4 ovarian it was 3.38 µM. The TGI with UO-31 renal is above 100 µM; in the assay with MCF7 breast, above 100 µM; with SF-295 CNS, 40.6 µM; in the assay on HOP-62 NSCLC it was 6.4 µM; in the assay on NCI/ADR-RES ovarian it was above 100 µM; in the assay on OVCAR-5 ovarian, above 100 µM. Also, the TGI with SK-MEL-5 melanoma is above 100 µM; in the assay with K-562 leukemia it was above 100 µM; with SK-MEL-28 melanoma, above 100 µM; with OVCAR-4 ovarian, 29.2 µM.

As for `CC(=O)Nc1cccc(-n2c(=O)n(C3CC3)c(=O)c3c(Nc4ccc(I)cc4F)n(C)c(=O)c(C)c32)c1`, the GI50 is 0.141 µM and 0.0654 µM in the assay with UO-31 renal; 12.1 µM and > 8.55 µM with MCF7 breast; 7.21 µM and > 10 µM with SF-295 CNS; 0.0121 µM in the assay with HOP-62 NSCLC; 2.29 µM and > 10 µM in the assay on NCI/ADR-RES ovarian; < 0.01 µM and 0.00472 µM with OVCAR-5 ovarian. Moreover, the GI50 with K-562 leukemia was 0.0955 µM and 0.196 µM; with SK-MEL-28 melanoma, < 0.01 µM and 0.0018 µM; in the assay on OVCAR-4 ovarian it was 0.515 µM and 2.65 µM. The TGI was 10.1 µM and > 10 µM in the assay with UO-31 renal; above 69.5 µM with MCF7 breast; 59.4 µM and > 10 µM with SF-295 CNS; above 50.7 µM in the assay with HOP-62 NSCLC; 40.6 µM and > 10 µM in the assay on NCI/ADR-RES ovarian; 29.8 µM and > 10 µM with OVCAR-5 ovarian. For the same compound, the TGI in the assay with SK-MEL-5 melanoma is 15.9 µM and > 10 µM; in the assay with K-562 leukemia, above 100 µM; with OVCAR-4 ovarian it was above 100 µM.
